Earlier results as cited in patent US7504230B2, “Method of identifying a useful set of signal transduction proteins from a multiplicity of potentially useful proteins” (Trelolis Bioscience, Inc., priority 1999, dated 2009).

Legend:
PKC isoenzyme βII = molecular target: T1, PKC isoenzyme βII (Homo sapiens, UniProt P05771); details: hDMEC, after stimulation with PMA; from nucleus
T1 construct: endogenous in cells; host or cells: hDMEC (human dermal microvascular endothelial cells)

[1] = tested on: fusion of the C1 region with green fluorescent protein (GFP); details: from a diffuse cytoplasmic localization
PKC isoenzyme ε = molecular target: T2, PKC isoenzyme ε (Homo sapiens, UniProt Q02156); details: hDMEC, after stimulation with PMA; from periphery
T2 construct: endogenous in cells; host or cells: hDMEC (human dermal microvascular endothelial cells)
T2 sequence (Q02156 1-737): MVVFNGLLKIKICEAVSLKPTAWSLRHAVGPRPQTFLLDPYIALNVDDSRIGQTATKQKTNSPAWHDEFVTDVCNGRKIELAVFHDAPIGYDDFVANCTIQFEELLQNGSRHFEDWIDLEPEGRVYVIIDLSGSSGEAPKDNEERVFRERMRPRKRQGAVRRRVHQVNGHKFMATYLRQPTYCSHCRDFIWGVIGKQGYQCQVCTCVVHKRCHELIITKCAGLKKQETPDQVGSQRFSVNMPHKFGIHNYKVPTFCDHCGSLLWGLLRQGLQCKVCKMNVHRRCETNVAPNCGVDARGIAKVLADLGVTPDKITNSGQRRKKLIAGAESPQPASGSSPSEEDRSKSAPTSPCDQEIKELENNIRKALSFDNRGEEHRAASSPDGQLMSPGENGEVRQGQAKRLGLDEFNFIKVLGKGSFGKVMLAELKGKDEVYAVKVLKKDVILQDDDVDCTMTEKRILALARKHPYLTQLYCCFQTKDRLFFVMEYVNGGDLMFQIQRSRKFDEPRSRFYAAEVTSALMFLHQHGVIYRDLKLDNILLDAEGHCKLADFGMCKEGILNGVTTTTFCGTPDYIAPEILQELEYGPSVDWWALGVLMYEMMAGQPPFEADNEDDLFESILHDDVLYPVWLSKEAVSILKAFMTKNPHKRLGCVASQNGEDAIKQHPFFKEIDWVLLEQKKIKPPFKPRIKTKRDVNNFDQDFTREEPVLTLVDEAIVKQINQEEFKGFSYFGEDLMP

PKC isoenzyme β = molecular target: T3, PKC isoenzyme β (Homo sapiens, UniProt P05771); details: hDMEC, after stimulation with PMA; from cytosol (ditto mark)
T3 construct: endogenous in cells; host or cells: hDMEC (human dermal microvascular endothelial cells)
T3 sequence (P05771 whole entry): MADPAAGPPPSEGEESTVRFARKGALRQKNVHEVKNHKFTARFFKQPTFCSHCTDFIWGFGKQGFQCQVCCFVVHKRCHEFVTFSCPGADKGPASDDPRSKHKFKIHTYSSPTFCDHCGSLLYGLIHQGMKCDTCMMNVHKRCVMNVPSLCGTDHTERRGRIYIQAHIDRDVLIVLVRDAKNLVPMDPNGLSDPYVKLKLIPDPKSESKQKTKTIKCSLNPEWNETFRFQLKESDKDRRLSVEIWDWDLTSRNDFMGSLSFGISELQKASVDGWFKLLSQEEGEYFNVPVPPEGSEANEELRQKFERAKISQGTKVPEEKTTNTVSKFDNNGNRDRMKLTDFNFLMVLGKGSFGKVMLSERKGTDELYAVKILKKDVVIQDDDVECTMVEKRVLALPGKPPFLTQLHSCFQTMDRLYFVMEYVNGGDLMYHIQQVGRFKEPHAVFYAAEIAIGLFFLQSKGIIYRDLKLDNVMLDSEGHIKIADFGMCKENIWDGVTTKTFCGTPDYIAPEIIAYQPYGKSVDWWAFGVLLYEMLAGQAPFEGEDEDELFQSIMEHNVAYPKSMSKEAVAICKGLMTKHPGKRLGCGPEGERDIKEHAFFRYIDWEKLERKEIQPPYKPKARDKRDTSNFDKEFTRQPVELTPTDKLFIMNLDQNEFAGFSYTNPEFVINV

PKC isoenzyme ζ = molecular target: T4, PKC isoenzyme ζ (Homo sapiens, UniProt Q05513); details: hDMEC, after stimulation with PMA; from fibrillar structures
T4 construct: endogenous in cells; host or cells: hDMEC (human dermal microvascular endothelial cells)
T4 sequence (Q05513 1-592): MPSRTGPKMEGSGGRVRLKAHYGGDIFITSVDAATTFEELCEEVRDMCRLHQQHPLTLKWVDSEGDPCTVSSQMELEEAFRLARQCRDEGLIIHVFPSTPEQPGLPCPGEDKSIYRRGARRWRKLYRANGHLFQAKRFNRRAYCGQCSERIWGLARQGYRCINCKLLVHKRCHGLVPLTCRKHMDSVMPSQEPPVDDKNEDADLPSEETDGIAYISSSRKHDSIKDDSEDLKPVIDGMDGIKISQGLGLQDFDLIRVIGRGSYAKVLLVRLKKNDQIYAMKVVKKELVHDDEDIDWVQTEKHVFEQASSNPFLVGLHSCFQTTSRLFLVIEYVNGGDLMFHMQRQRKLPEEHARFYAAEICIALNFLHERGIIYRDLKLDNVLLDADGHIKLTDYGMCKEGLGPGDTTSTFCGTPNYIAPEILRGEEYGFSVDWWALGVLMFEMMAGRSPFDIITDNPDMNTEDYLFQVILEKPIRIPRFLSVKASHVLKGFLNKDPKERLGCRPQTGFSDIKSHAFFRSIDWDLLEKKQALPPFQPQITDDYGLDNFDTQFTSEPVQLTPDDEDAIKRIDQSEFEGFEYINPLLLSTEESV

PKC isoenzyme δ = molecular target: T5, PKC isoenzyme δ (Homo sapiens, UniProt Q05655); details: hDMEC, after stimulation with PMA; from cytosol
T5 construct: endogenous in cells; host or cells: hDMEC (human dermal microvascular endothelial cells)
T5 sequence (Q05655 whole entry): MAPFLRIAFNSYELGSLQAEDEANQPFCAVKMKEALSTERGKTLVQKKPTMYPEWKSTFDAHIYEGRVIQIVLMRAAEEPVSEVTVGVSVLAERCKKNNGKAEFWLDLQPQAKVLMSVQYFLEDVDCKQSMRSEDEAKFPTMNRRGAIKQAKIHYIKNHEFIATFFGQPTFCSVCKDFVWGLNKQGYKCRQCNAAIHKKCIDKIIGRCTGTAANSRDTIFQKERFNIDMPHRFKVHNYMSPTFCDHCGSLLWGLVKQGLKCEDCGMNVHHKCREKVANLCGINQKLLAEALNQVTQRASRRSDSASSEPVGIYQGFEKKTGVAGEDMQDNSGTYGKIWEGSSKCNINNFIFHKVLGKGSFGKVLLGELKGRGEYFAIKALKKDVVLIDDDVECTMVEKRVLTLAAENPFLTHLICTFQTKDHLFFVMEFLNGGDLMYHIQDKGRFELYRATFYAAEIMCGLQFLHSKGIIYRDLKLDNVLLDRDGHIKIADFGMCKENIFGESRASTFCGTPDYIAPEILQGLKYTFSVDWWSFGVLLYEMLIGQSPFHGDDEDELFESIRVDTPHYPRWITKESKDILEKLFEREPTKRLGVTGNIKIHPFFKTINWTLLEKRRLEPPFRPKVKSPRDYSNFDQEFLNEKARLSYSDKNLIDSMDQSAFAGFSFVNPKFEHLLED

PKC isoenzyme η = molecular target: T6, PKC isoenzyme η (Homo sapiens, UniProt P24723); details: hDMEC, after stimulation with PMA; from nucleus
T6 construct: endogenous in cells; host or cells: hDMEC (human dermal microvascular endothelial cells)
T6 sequence (P24723 whole entry): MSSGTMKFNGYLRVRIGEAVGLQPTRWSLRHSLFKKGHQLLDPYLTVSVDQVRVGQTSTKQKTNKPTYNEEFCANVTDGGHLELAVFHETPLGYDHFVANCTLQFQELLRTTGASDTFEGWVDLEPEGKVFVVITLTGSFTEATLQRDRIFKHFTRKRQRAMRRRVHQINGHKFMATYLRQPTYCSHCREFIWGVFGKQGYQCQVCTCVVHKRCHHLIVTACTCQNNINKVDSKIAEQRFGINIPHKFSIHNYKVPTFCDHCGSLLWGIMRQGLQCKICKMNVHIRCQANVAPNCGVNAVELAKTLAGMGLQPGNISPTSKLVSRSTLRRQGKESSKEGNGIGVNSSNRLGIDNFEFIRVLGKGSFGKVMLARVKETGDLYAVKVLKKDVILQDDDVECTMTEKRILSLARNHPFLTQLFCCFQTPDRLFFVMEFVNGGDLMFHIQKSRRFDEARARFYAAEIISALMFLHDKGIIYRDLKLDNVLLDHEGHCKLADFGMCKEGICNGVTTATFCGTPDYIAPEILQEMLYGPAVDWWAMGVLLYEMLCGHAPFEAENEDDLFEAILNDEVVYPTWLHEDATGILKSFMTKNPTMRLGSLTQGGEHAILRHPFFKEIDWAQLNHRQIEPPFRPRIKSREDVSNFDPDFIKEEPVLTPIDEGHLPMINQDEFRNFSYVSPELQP

PKC isoenzyme α = molecular target: T7, PKC isoenzyme α (Homo sapiens, UniProt P17252); details: hDMEC, after stimulation with PMA; from cytosol
T7 construct: endogenous in cells; host or cells: hDMEC (human dermal microvascular endothelial cells)

T1 sequence (P05771 1-673 isoform P05771-2): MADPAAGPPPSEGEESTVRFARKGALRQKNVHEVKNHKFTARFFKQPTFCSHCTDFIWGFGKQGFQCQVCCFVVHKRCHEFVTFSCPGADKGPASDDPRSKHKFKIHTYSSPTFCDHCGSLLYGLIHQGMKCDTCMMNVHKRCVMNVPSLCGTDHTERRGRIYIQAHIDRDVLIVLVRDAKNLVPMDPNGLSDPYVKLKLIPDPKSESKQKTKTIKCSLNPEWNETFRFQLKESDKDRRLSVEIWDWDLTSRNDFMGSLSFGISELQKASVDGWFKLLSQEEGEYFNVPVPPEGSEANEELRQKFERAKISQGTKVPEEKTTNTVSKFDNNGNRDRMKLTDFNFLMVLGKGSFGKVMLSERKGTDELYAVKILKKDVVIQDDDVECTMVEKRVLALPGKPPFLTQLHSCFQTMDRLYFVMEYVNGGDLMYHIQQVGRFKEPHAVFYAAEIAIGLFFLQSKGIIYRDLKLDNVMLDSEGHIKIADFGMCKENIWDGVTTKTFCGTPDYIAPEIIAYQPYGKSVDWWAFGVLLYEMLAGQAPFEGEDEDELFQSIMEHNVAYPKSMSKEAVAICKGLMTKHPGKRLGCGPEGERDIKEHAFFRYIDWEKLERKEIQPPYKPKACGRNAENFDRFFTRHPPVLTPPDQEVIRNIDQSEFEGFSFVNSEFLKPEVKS

CCCCCCCCCCCCCC(=O)O[C@@H]1[C@@H](C)[C@@]2(O)[C@@H](C=C(CO)C[C@]3(O)C(=O)C(C)=C[C@@H]23)[C@@H]2C(C)(C)[C@]12OC(C)=O [PMA, phorbol myristic acetate]
Localization after stimulation (To) (PKC isoenzyme βII): filamentous structures | Localization of C1-GFP fusion protein in response to PMA [1]: membrane bound | Localization after stimulation (To) (PKC isoenzyme ε): perinucleus | Localization after stimulation (To) (PKC isoenzyme β): nucleus | Localization after stimulation (To) (PKC isoenzyme ζ): no change | Localization after stimulation (To) (PKC isoenzyme δ): cytoskeletal elements | Localization after stimulation (To) (PKC isoenzyme η): no change | Localization after stimulation (To) (PKC isoenzyme α): perinuclear membrane
